Broadly, the inhibition in vivo is the drop in the measured response relative to a control, in per cent.

Molecules are shown by their SMILES.

Data set [1] can be described thus: Plasma concentration in mouse model of laser-induced choroidal neovascularization at 100 mg/kg, po bid for 7 days measured 16 hrs post last dose. The data set is classed as ADME, organism-based.
The test system of the next data set is Mus musculus. The data set can be described thus: Antiangiogenic activity in mouse model of laser-induced choroidal neovascularization assessed as inhibition of neovascular lesion formation at 100 mg/kg, po bid for 7 days. The settings on record: 168 h. The data set is classed as functional.

Regarding `Cc1ccc(Nc2nccc(N(C)c3ccc4c(C)n(C)nc4c3)n2)cc1S(N)(=O)=O` [PAZOPANIB], in data set [1], the concentration at 16 h turned out to be 13 µM. Moreover, the inhibition in vivo at 100 mg/kg with Mus musculus was determined as 93%.

For the origin of these results see ChEMBL document CHEMBL3745705, “Discovery of Oral VEGFR-2 Inhibitors with Prolonged Ocular Retention That Are Efficacious in Models of Wet Age-Related Macular Degeneration” (J Med Chem, 2015).
